According to patent EP0431323A1, “Antitumor antibiotic BU-3983T” (priority 1989, dated 1991):
Where two headings read alike, the source gives them in different places.

Assays:
[1] = system: P388 leukemia; assay: In vivo antitumor activity in tumor-bearing mice, P388 leukemia (ip); conditions: for Body weight change on day 4 / MST (Median survival time) / T/C: P388 leukemia ip, CDF₁ mice, Q1D x 1; for T/C: significant if T/C ≧ 125%
Method: (§1) In vivo antitumor activity of BU-3983T was examined using tumor-bearing mice. Male BDF₁ mice were intraperitoneally inoculated with 0.5 ml of 10% melanotic melanoma B16 brei, and female CDF₁ mice were intraperitoneally inoculated with 0.4 ml of diluted ascitic fluid containing 10⁶ lymphocytic leukemia P388 cells or 10⁵ lymphoid leukemia L1210 cells. Mitomycin C was used as a reference compound. Test compounds were intraperitoneally administered to the mice by the following treatment schedules: once a day on day 1 only (Q1D x 1), on days 1, 5 and 9 (Q4D x 3) or on days 1 to 9 (Q1D x 9). […]

[2] = system: DNA synthesis in B16-F10 melanoma cells; assay: Inhibition of macromolecule synthesis: DNA (3H-thymidine incorporation); assay type: cell-based, murine; conditions: 4.5 hours + 30 minutes label
Method: (§3) B16-F10 cells (10⁵ cells/ml) were incubated with test materials at 37°C for 4.5 hours (for DNA synthesis) or 4 hours (for RNA and protein syntheses). Labelled precursor, ³H-thymidine, ¹⁴C-uridine or ³H-leucine was added to the culture and further incubated for 30 minutes (for DNA) or 60 minutes (for RNA and protein). After washing with chilled 5% trichloroacetic acid solution, the radioactivity incorporated into the acid-insoluble fraction of the tumor cells was determined by a liquid scintillation counter. Actinomycin D was used as a reference compound.

[3] = system: Moser (human colorectal carcinoma); conditions: Moser cells, 72 hours
Method: (§2) BU-3983T was tested for in vitro cytotoxicity against murine and human cell lines and for in vivo antitumor activity in mice. B16-F10 (murine melanoma) and Moser (human colorectal carcinoma) cells were grown to the logarithmic phase in the enriched Eagle minimum essential medium supplemented with fetal calf serum (FCS, 10%) and kanamycin (60 µg/ml), and HCT-116 (human colon carcinoma) were in McCoy's 5A medium supplemented with FCS (10%), penicillin (100 U/ml) and streptomycin (100 µg/ml). B16-F10, Moser and HCT-116 cells were harvested and implanted into wells of a 96-well microtiter plate at the inoculum sizes of 1.5 x 10⁴, 3 x 10⁴ and 3 x 10⁴ cells/ml, respectively. They were incubated with test materials at 37°C in humidified atmosphere of 5% CO₂ and 95% air for 72 hours. The cytotoxicity against tumor cells was determined colorimetrically at 540 nm after staining viable cells.

[4] = system: B16-F10 (murine melanoma)
Method: as §2

[5] = system: HCT-116 (human colon carcinoma); conditions: HCT-116 cells, 72 hours
Method: as §2

[6] = system: B16 melanoma; assay: In vivo antitumor activity in tumor-bearing mice, B16 melanoma (ip); conditions: for Body weight change on day 5 / MST (Median survival time) / T/C: B16 melanoma ip, BDF₁ mice; for T/C: significant if T/C ≧ 125%
Method: as §1

[7] = system: L1210 leukemia; assay: In vivo antitumor activity in tumor-bearing mice, L1210 leukemia (ip); conditions: for Body weight change on day 4 / MST (Median survival time) / T/C: L1210 leukemia ip, CDF₁ mice, Q1D x 1; for T/C: significant if T/C ≧ 125%
Method: as §1

[8] = system: Protein synthesis in B16-F10 melanoma cells; assay: Inhibition of macromolecule synthesis: protein (3H-leucine incorporation); assay type: cell-based, murine
Method: as §3

[9] = Antimicrobial activity (no method given)
[10] = system: RNA synthesis in B16-F10 melanoma cells; assay: Inhibition of macromolecule synthesis: RNA (14C-uridine incorporation); assay type: cell-based, murine; conditions: 4 hours + 60 minutes label
Method: as §3

CCC(C)CC(C)CC(C)/C=C(\C)C1OC(O)(C(C)(O)C(=O)NC2C(=O)N3NCCCC3C(=O)N(O)CC(=O)N(C)CC(=O)NCC(=O)N(C)CC(=O)OC2C(C)C)CCC1OC (centres unmarked) [BU-3983T]
Body weight change on day 4 ([1]; 0.25 mg/kg/day ip): +0.3 g | MST (Median survival time) ([1]; 0.25 mg/kg/day ip): 11.0 days | T/C ([1]; 0.25 mg/kg/day ip): 110% | Body weight change on day 4 ([1]; 0.5 mg/kg/day ip): -0.5 g | MST (Median survival time) ([1]; 0.5 mg/kg/day ip): 10.0 days | T/C ([1]; 0.5 mg/kg/day ip): 100% | Body weight change on day 4 ([1]; 1 mg/kg/day ip): -1.5 g | MST (Median survival time) ([1]; 1 mg/kg/day ip): 10.0 days | T/C ([1]; 1 mg/kg/day ip): 100% | Body weight change on day 4 ([1]; 2 mg/kg/day ip): -2.0 g | MST (Median survival time) ([1]; 2 mg/kg/day ip): 10.0 days | T/C ([1]; 2 mg/kg/day ip): 100% | Body weight change on day 4 ([1]; 4 mg/kg/day ip): -2.3 g | MST (Median survival time) ([1]; 4 mg/kg/day ip): 11.0 days | T/C ([1]; 4 mg/kg/day ip): 110% | Body weight change on day 4 ([1]; 8 mg/kg/day ip): -2.5 g | MST (Median survival time) ([1]; 8 mg/kg/day ip): 11.5 days | T/C ([1]; 8 mg/kg/day ip): 115% | prolongation of lifespan ([1]; P388 leukemia system, ip): no significant prolongation of lifespan | IC₅₀ DNA [2]: 0.26 µg/mL | IC₅₀ [3]: 0.4 µg/mL | IC₅₀ ([4]; B16-F10 cells, 72 hours): 0.004 µg/mL | times more potent against B16-F10 than against HCT-116 ([4]; ratio of IC₅₀ values, B16-F10 vs HCT-116): 10 times | times more potent against B16-F10 than against Moser ([4]; ratio of IC₅₀ values, B16-F10 vs Moser): 100 times | IC₅₀ [5]: 0.04 µg/mL | Body weight change on day 5 ([6]; 0.031 mg/kg/day ip, Q1D x 9): +1.0 g | MST (Median survival time) ([6]; 0.031 mg/kg/day ip, Q1D x 9): 16.0 days | T/C ([6]; 0.031 mg/kg/day ip, Q1D x 9): 110% | Body weight change on day 5 ([6]; 0.063 mg/kg/day ip, Q1D x 9): +1.0 g | MST (Median survival time) ([6]; 0.063 mg/kg/day ip, Q1D x 9): 17.5 days | T/C ([6]; 0.063 mg/kg/day ip, Q1D x 9): 121% | Body weight change on day 5 ([6]; 0.063 mg/kg/day ip, Q4D x 3): +0.5 g | MST (Median survival time) ([6]; 0.063 mg/kg/day ip, Q4D x 3): 14.0 days | T/C ([6]; 0.063 mg/kg/day ip, Q4D x 3): 108% | Body weight change on day 5 ([6]; 0.13 mg/kg/day ip, Q1D x 1): +0.5 g | MST (Median survival time) ([6]; 0.13 mg/kg/day ip, Q1D x 1): 14.0 days | T/C ([6]; 0.13 mg/kg/day ip, Q1D x 1): 108% | Body weight change on day 5 ([6]; 0.13 mg/kg/day ip, Q1D x 9): -0.3 g | MST (Median survival time) ([6]; 0.13 mg/kg/day ip, Q1D x 9): 19.0 days | T/C ([6]; 0.13 mg/kg/day ip, Q1D x 9): 131*² % | Body weight change on day 5 ([6]; 0.13 mg/kg/day ip, Q4D x 3): +0.0 g | MST (Median survival time) ([6]; 0.13 mg/kg/day ip, Q4D x 3): 15.0 days | T/C ([6]; 0.13 mg/kg/day ip, Q4D x 3): 115% | Body weight change on day 5 ([6]; 0.25 mg/kg/day ip, Q1D x 1): 0.0 g | MST (Median survival time) ([6]; 0.25 mg/kg/day ip, Q1D x 1): 17.0 days | T/C ([6]; 0.25 mg/kg/day ip, Q1D x 1): 131*² % | Body weight change on day 5 ([6]; 0.25 mg/kg/day ip, Q1D x 9): -1.0 g | MST (Median survival time) ([6]; 0.25 mg/kg/day ip, Q1D x 9): 19.5 days | T/C ([6]; 0.25 mg/kg/day ip, Q1D x 9): 138*² % | Body weight change on day 5 ([6]; 0.25 mg/kg/day ip, Q4D x 3): 0.0 g | MST (Median survival time) ([6]; 0.25 mg/kg/day ip, Q4D x 3): 16.0 days | T/C ([6]; 0.25 mg/kg/day ip, Q4D x 3): 123% | Body weight change on day 5 ([6]; 0.5 mg/kg/day ip, Q1D x 1): -1.0 g | MST (Median survival time) ([6]; 0.5 mg/kg/day ip, Q1D x 1): 17.0 days | T/C ([6]; 0.5 mg/kg/day ip, Q1D x 1): 131*² % | Body weight change on day 5 ([6]; 0.5 mg/kg/day ip, Q1D x 9): -4.0 g | MST (Median survival time) ([6]; 0.5 mg/kg/day ip, Q1D x 9): 20.0 days | T/C ([6]; 0.5 mg/kg/day ip, Q1D x 9): 148*² % | Body weight change on day 5 ([6]; 0.5 mg/kg/day ip, Q4D x 3): -0.5 g | MST (Median survival time) ([6]; 0.5 mg/kg/day ip, Q4D x 3): 19.0 days | T/C ([6]; 0.5 mg/kg/day ip, Q4D x 3): 146*² % | Body weight change on day 5 ([6]; 1 mg/kg/day ip, Q1D x 1): -4.0 g | MST (Median survival time) ([6]; 1 mg/kg/day ip, Q1D x 1): 16.5 days | T/C ([6]; 1 mg/kg/day ip, Q1D x 1): 127*² % | MST (Median survival time) ([6]; 1 mg/kg/day ip, Q1D x 9): Tox | T/C ([6]; 1 mg/kg/day ip, Q1D x 9): Tox | Body weight change on day 5 ([6]; 1 mg/kg/day ip, Q4D x 3): -2.3 g | MST (Median survival time) ([6]; 1 mg/kg/day ip, Q4D x 3): 17.5 days | T/C ([6]; 1 mg/kg/day ip, Q4D x 3): 135*² % | Body weight change on day 5 ([6]; 2 mg/kg/day ip, Q1D x 1): -4.8 g | MST (Median survival time) ([6]; 2 mg/kg/day ip, Q1D x 1): 21.0 days | T/C ([6]; 2 mg/kg/day ip, Q1D x 1): 162*² % | Body weight change on day 5 ([6]; 2 mg/kg/day ip, Q4D x 3): -4.0 g | MST (Median survival time) ([6]; 2 mg/kg/day ip, Q4D x 3): 18.0 days | T/C ([6]; 2 mg/kg/day ip, Q4D x 3): 138*² % | Body weight change on day 5 ([6]; 4 mg/kg/day ip, Q1D x 1): -5.3 g | MST (Median survival time) ([6]; 4 mg/kg/day ip, Q1D x 1): 19.0 days | T/C ([6]; 4 mg/kg/day ip, Q1D x 1): 146*² % | Body weight change on day 5 ([6]; 8 mg/kg/day ip, Q1D x 1): -5.3 g | MST (Median survival time) ([6]; 8 mg/kg/day ip, Q1D x 1): 17.5 days | T/C ([6]; 8 mg/kg/day ip, Q1D x 1): 135*² % | maximum T/C ([6]; B16 melanoma, by various treatment schedules (Q1D x 1, Q4D x 3, Q1D x 9), ip): 146-162% | Body weight change on day 4 ([7]; 0.25 mg/kg/day ip): +0.8 g | MST (Median survival time) ([7]; 0.25 mg/kg/day ip): 8.0 days | T/C ([7]; 0.25 mg/kg/day ip): 100% | Body weight change on day 4 ([7]; 0.5 mg/kg/day ip): -0.5 g | MST (Median survival time) ([7]; 0.5 mg/kg/day ip): 8.0 days | T/C ([7]; 0.5 mg/kg/day ip): 100% | Body weight change on day 4 ([7]; 1 mg/kg/day ip): -2.0 g | MST (Median survival time) ([7]; 1 mg/kg/day ip): 8.0 days | T/C ([7]; 1 mg/kg/day ip): 100% | Body weight change on day 4 ([7]; 2 mg/kg/day ip): -2.0 g | MST (Median survival time) ([7]; 2 mg/kg/day ip): 9.0 days | T/C ([7]; 2 mg/kg/day ip): 113% | Body weight change on day 4 ([7]; 4 mg/kg/day ip): -2.5 g | MST (Median survival time) ([7]; 4 mg/kg/day ip): 9.5 days | T/C ([7]; 4 mg/kg/day ip): 119% | MST (Median survival time) ([7]; 8 mg/kg/day ip): Tox | T/C ([7]; 8 mg/kg/day ip): Tox | prolongation of lifespan ([7]; L1210 leukemia system, ip): no significant prolongation of lifespan | IC₅₀ Protein ([8]; 4 hours + 60 minutes label): >1.0 µg/mL | inhibition of protein synthesis ([8]; at 1.0 µg/ml): only weak inhibition | antimicrobial activity [9]: weak | solubility (in acetonitrile, methanol, chloroform, dimethyl sulfoxide and dimethylformamide): readily soluble | solubility (in n-butanol, ethanol and ethyl acetate): slightly soluble | solubility (in n-hexane and water): practically insoluble | IC₅₀ RNA [10]: 0.29 µg/mL
